Source: publication PMC12274840 (The Journal of Biological Chemistry, 2025)
In brackets after ≈: the same amount, converted by molar mass. Where two headings read alike, the source gives them in different places.

Columns and labels:
CTX-M-14 Y105G = biological target: T1, CTX-M-14 Y105G (Escherichia coli, UniProt Q9L5C7, Y108G); type: biochemical
T1 construct: 29 to 291 of CTX-M-14 (Q9L5C7); His tag with TEV cleavage site (N); made in house; host or cells: E. coli BL21 (DE3) pLysS

[1] = tested on: E. coli KA797 cells carrying KPC-2 position 105 library; type: cell-based; conditions: selection with labelled antibiotic
[2] = tested on: E. coli KA797 cells carrying BlaC position 105 library; type: cell-based, Escherichia coli; conditions: carbenicillin; for Fi CAR AVG: average of replicates
TEM-1 Y105G = TEM-1 Y105G (Escherichia coli, UniProt P62593, Y103G); assay: Steady-state kinetics of substrate hydrolysis, TEM-1 Y105G; type: biochemical; conditions: phosphate buffer pH 6.4, 25 °C
[3] = tested on: E. coli KA797 cells carrying pUK21 with KPC-2 (Tat); assay: microbe, parasite or virus in culture; type: cell-based; conditions: Escherichia coli, antibiotic alone
[4] = tested on: E. coli KA797 cells carrying CTX-M-14 position 105 library; type: cell-based
[5] = tested on: E. coli KA797 cells carrying pUK21 with NmcA (pelB/Sec); assay: microbe, parasite or virus in culture; type: cell-based; conditions: Escherichia coli, antibiotic alone
[6] = tested on: E. coli KA797 cells carrying pUK21 with BlaC WT (Tat); assay: microbe, parasite or virus in culture; type: cell-based; conditions: Escherichia coli, antibiotic alone

CC1(C)S[C@@H]2[C@H](NC(=O)C(C(=O)O)c3ccccc3)C(=O)N2[C@H]1C(=O)O (some centres unmarked) [carbenicillin]
kcat (CTX-M-14 Y105G; phosphate buffer pH 6.4, 25 °C): 11 ± 2 s⁻¹ | Km (CTX-M-14 Y105G; read-out: KM^app, phosphate buffer pH 6.4, 25 °C): 228 ± 61 µM | Fi AVG (average fitness of replicates) ([1]; KPC-2 AA 105 = Ala): -1.895 | Fi AVG (average fitness of replicates) ([1]; KPC-2 AA 105 = Arg): -0.930 | Significance of average fitness ([1]; KPC-2 AA 105 = Arg): - | Fi AVG (average fitness of replicates) ([1]; KPC-2 AA 105 = Asn): -1.475 | Fi AVG (average fitness of replicates) ([1]; KPC-2 AA 105 = Asp): -1.100 | Significance of average fitness ([1]; KPC-2 AA 105 = Asp): - | Fi AVG (average fitness of replicates) ([1]; KPC-2 AA 105 = Cys): -1.311 | Significance of average fitness ([1]; KPC-2 AA 105 = Cys): - | Fi AVG (average fitness of replicates) ([1]; KPC-2 AA 105 = Gln): -2.037 | Significance of average fitness ([1]; KPC-2 AA 105 = Gln): - | Fi AVG (average fitness of replicates) ([1]; KPC-2 AA 105 = Glu): -1.844 | Fi AVG (average fitness of replicates) ([1]; KPC-2 AA 105 = Gly): -1.656 | Significance of average fitness ([1]; KPC-2 AA 105 = Gly): - | Fi AVG (average fitness of replicates) ([1]; KPC-2 AA 105 = His): 0.833 | Significance of average fitness ([1]; KPC-2 AA 105 = His): + | Fi AVG (average fitness of replicates) ([1]; KPC-2 AA 105 = Ile): -0.975 | Fi AVG (average fitness of replicates) ([1]; KPC-2 AA 105 = Leu): -1.769 | Significance of average fitness ([1]; KPC-2 AA 105 = Leu): - | Fi AVG (average fitness of replicates) ([1]; KPC-2 AA 105 = Met): -2.969 | Fi AVG (average fitness of replicates) ([1]; KPC-2 AA 105 = Phe): -1.337 | Significance of average fitness ([1]; KPC-2 AA 105 = Phe): - | Fi AVG (average fitness of replicates) ([1]; KPC-2 AA 105 = Ser): -2.334 | Significance of average fitness ([1]; KPC-2 AA 105 = Ser): - | Fi AVG (average fitness of replicates) ([1]; KPC-2 AA 105 = Thr): -0.740 | Significance of average fitness ([1]; KPC-2 AA 105 = Thr): - | Fi AVG (average fitness of replicates) ([1]; KPC-2 AA 105 = Trp (WT, reference)): 0.000 | Fi AVG (average fitness of replicates) ([1]; KPC-2 AA 105 = Tyr): -1.021 | Significance of average fitness ([1]; KPC-2 AA 105 = Tyr): - | Fi AVG (average fitness of replicates) ([1]; KPC-2 AA 105 = Val): -2.800 | Significance of average fitness ([1]; KPC-2 AA 105 = Val): - | WT abs Fi 1 (absolute fitness) ([1]; KPC-2 WT (Trp 105), replicate 1): 0.136 | WT abs Fi 2 (absolute fitness) ([1]; KPC-2 WT (Trp 105), replicate 2): -0.163 | WT abs Fi 3 (absolute fitness) ([1]; KPC-2 WT (Trp 105), replicate 3): 0.473 | Fi CAR AVG ([2]; AA 105 Ala): -0.273 | Fi CAR 1 ([2]; AA 105 Ala, replicate 1): -0.487 | Fi CAR 3 ([2]; AA 105 Ala, replicate 3): -0.060 | Fi CAR AVG ([2]; AA 105 Arg): 0.354 | Fi CAR 1 ([2]; AA 105 Arg, replicate 1): -0.038 | Fi CAR 2 ([2]; AA 105 Arg, replicate 2): 0.623 | Fi CAR 3 ([2]; AA 105 Arg, replicate 3): 0.477 | Fi CAR AVG ([2]; AA 105 Asn): 0.070 | Fi CAR 1 ([2]; AA 105 Asn, replicate 1): 0.359 | Fi CAR 2 ([2]; AA 105 Asn, replicate 2): -0.104 | Fi CAR 3 ([2]; AA 105 Asn, replicate 3): -0.045 | Fi CAR AVG ([2]; AA 105 Asp): 0.382 | Fi CAR 1 ([2]; AA 105 Asp, replicate 1): 0.054 | Fi CAR 2 ([2]; AA 105 Asp, replicate 2): 0.201 | Fi CAR 3 ([2]; AA 105 Asp, replicate 3): 0.891 | Significance (Fi CAR AVG) ([2]; AA 105 Cys): + | Fi CAR AVG ([2]; AA 105 Cys): 0.765 | Fi CAR 1 ([2]; AA 105 Cys, replicate 1): 0.616 | Fi CAR 2 ([2]; AA 105 Cys, replicate 2): 0.636 | Fi CAR 3 ([2]; AA 105 Cys, replicate 3): 1.043 | Significance (Fi CAR AVG) ([2]; AA 105 Gln): + | Fi CAR AVG ([2]; AA 105 Gln): 1.328 | Fi CAR 1 ([2]; AA 105 Gln, replicate 1): 1.419 | Fi CAR 2 ([2]; AA 105 Gln, replicate 2): 1.237 | Fi CAR AVG ([2]; AA 105 Glu): 0.421 | Fi CAR 1 ([2]; AA 105 Glu, replicate 1): 1.372 | Fi CAR 2 ([2]; AA 105 Glu, replicate 2): -0.419 | Fi CAR 3 ([2]; AA 105 Glu, replicate 3): 0.311 | Significance (Fi CAR AVG) ([2]; AA 105 Gly): - | Fi CAR AVG ([2]; AA 105 Gly): -0.444 | Fi CAR 1 ([2]; AA 105 Gly, replicate 1): -0.596 | Fi CAR 2 ([2]; AA 105 Gly, replicate 2): -0.209 | Fi CAR 3 ([2]; AA 105 Gly, replicate 3): -0.526 | Significance (Fi CAR AVG) ([2]; AA 105 His): + | Fi CAR AVG ([2]; AA 105 His): 2.514 | Fi CAR 1 ([2]; AA 105 His, replicate 1): 2.622 | Fi CAR 2 ([2]; AA 105 His, replicate 2): 2.393 | Fi CAR 3 ([2]; AA 105 His, replicate 3): 2.527 | Fi CAR AVG ([2]; AA 105 Ile (WT)): 0.000 | Fi CAR 1 ([2]; AA 105 Ile (WT), replicate 1): 0.000 | Fi CAR 2 ([2]; AA 105 Ile (WT), replicate 2): 0.000 | Fi CAR 3 ([2]; AA 105 Ile (WT), replicate 3): 0.000 | Significance (Fi CAR AVG) ([2]; AA 105 Leu): + | Fi CAR AVG ([2]; AA 105 Leu): 0.730 | Fi CAR 1 ([2]; AA 105 Leu, replicate 1): 1.223 | Fi CAR 2 ([2]; AA 105 Leu, replicate 2): 0.445 | Fi CAR 3 ([2]; AA 105 Leu, replicate 3): 0.522 | Fi CAR AVG ([2]; AA 105 Met): 0.034 | Fi CAR 1 ([2]; AA 105 Met, replicate 1): 0.791 | Fi CAR 3 ([2]; AA 105 Met, replicate 3): -0.722 | Significance (Fi CAR AVG) ([2]; AA 105 Phe): + | Fi CAR AVG ([2]; AA 105 Phe): 3.398 | Fi CAR 1 ([2]; AA 105 Phe, replicate 1): 3.349 | Fi CAR 2 ([2]; AA 105 Phe, replicate 2): 3.354 | Fi CAR 3 ([2]; AA 105 Phe, replicate 3): 3.492 | Significance (Fi CAR AVG) ([2]; AA 105 Ser): + | Fi CAR AVG ([2]; AA 105 Ser): 0.539 | Fi CAR 1 ([2]; AA 105 Ser, replicate 1): 0.311 | Fi CAR 2 ([2]; AA 105 Ser, replicate 2): 0.896 | Fi CAR 3 ([2]; AA 105 Ser, replicate 3): 0.410 | Fi CAR AVG ([2]; AA 105 Thr): -0.255 | Fi CAR 2 ([2]; AA 105 Thr, replicate 2): -0.487 | Fi CAR 3 ([2]; AA 105 Thr, replicate 3): -0.023 | Significance (Fi CAR AVG) ([2]; AA 105 Trp): + | Fi CAR AVG ([2]; AA 105 Trp): 3.306 | Fi CAR 1 ([2]; AA 105 Trp, replicate 1): 3.226 | Fi CAR 2 ([2]; AA 105 Trp, replicate 2): 3.199 | Fi CAR 3 ([2]; AA 105 Trp, replicate 3): 3.493 | Significance (Fi CAR AVG) ([2]; AA 105 Tyr): + | Fi CAR AVG ([2]; AA 105 Tyr): 3.672 | Fi CAR 1 ([2]; AA 105 Tyr, replicate 1): 3.556 | Fi CAR 2 ([2]; AA 105 Tyr, replicate 2): 3.582 | Fi CAR 3 ([2]; AA 105 Tyr, replicate 3): 3.878 | Fi CAR AVG ([2]; AA 105 Val): -0.016 | Fi CAR 1 ([2]; AA 105 Val, replicate 1): 0.268 | Fi CAR 2 ([2]; AA 105 Val, replicate 2): 0.226 | Fi CAR 3 ([2]; AA 105 Val, replicate 3): -0.543 | WT abs Fi 1 ([2]; WT (Ile 105) absolute fitness, replicate 1): -1.491 | WT abs Fi 2 ([2]; WT (Ile 105) absolute fitness, replicate 2): -1.775 | WT abs Fi 3 ([2]; WT (Ile 105) absolute fitness, replicate 3): -2.001 | kcat (TEM-1 Y105G): 59.0 ± 0.3 s⁻¹ | MIC [3]: 400 µg/mL (≈ 1060 µM) | Significance of average fitness ([4]; CTX-M-14 AA 105 Ala): - | Significance of average fitness ([4]; CTX-M-14 AA 105 Arg): - | Significance of average fitness ([4]; CTX-M-14 AA 105 Asn): - | Significance of average fitness ([4]; CTX-M-14 AA 105 Asp): - | Significance of average fitness ([4]; CTX-M-14 AA 105 Cys): - | Significance of average fitness ([4]; CTX-M-14 AA 105 Gln): - | Significance of average fitness ([4]; CTX-M-14 AA 105 Glu): - | Significance of average fitness ([4]; CTX-M-14 AA 105 Gly): - | Significance of average fitness ([4]; CTX-M-14 AA 105 His): - | Significance of average fitness ([4]; CTX-M-14 AA 105 Ile): - | Significance of average fitness ([4]; CTX-M-14 AA 105 Leu): - | Significance of average fitness ([4]; CTX-M-14 AA 105 Lys): - | Significance of average fitness ([4]; CTX-M-14 AA 105 Met): - | Significance of average fitness ([4]; CTX-M-14 AA 105 Pro): - | Significance of average fitness ([4]; CTX-M-14 AA 105 Ser): - | Significance of average fitness ([4]; CTX-M-14 AA 105 Thr): - | Significance of average fitness ([4]; CTX-M-14 AA 105 Val): - | WT abs Fi 1 (absolute fitness of wild type, Replicate 1) ([4]; CTX-M-14 WT (Tyr 105)): 0.706 | MIC [5]: 200 µg/mL (≈ 529 µM) | MIC [6]: 800 µg/mL (≈ 2110 µM)
